In publication PMC6199309, “A therapeutic approach to pantothenate kinase associated neurodegeneration” (Nature Communications, 2018):
Read-outs that look alike come from different tables or passages of the source.

Columns and labels:
AKT1 = target: T1, AKT1 (Homo sapiens, UniProt P31749); test: KINOMEscan; assay type: binding; conditions: read-out: %Ctrl @ 10000nM
T1 construct: purchased DiscoverX KINOMEscan

ALK(L1196M) = target: T2, ALK(L1196M) (Homo sapiens, UniProt Q9UM73, L1196M); test: KINOMEscan; assay type: binding; conditions: read-out: %Ctrl @ 10000nM
T2 construct: purchased DiscoverX KINOMEscan

AMPK-alpha2 = target: T3, AMPK-alpha2 (Homo sapiens, UniProt P54646); test: KINOMEscan; assay type: binding; conditions: read-out: %Ctrl @ 10000nM
T3 construct: purchased DiscoverX KINOMEscan

CDK4-cyclinD3 = target: T4, CDK4-cyclinD3 (Homo sapiens, UniProt P11802); test: KINOMEscan; assay type: binding; conditions: read-out: %Ctrl @ 10000nM
T4 construct: purchased DiscoverX KINOMEscan

CDK9 = target: T5, CDK9 (Homo sapiens, UniProt P50750); test: KINOMEscan; assay type: binding; conditions: read-out: %Ctrl @ 10000nM
T5 construct: purchased DiscoverX KINOMEscan

EGFR(G719C) = target: T6, EGFR(G719C) (Homo sapiens, UniProt P00533, G719C); test: KINOMEscan; assay type: binding; conditions: read-out: %Ctrl @ 10000nM
T6 construct: purchased DiscoverX KINOMEscan

EPHA4 = target: T7, EPHA4 (Homo sapiens, UniProt P54764); test: KINOMEscan; assay type: binding; conditions: read-out: %Ctrl @ 10000nM
T7 construct: purchased DiscoverX KINOMEscan

FGR = target: T8, FGR (Homo sapiens, UniProt P09769); test: KINOMEscan; assay type: binding; conditions: read-out: %Ctrl @ 10000nM
T8 construct: purchased DiscoverX KINOMEscan

HIPK1 = target: T9, HIPK1 (Homo sapiens, UniProt Q86Z02); test: KINOMEscan; assay type: binding; conditions: read-out: %Ctrl @ 10000nM
T9 construct: purchased DiscoverX KINOMEscan

HUNK = target: T10, HUNK (Homo sapiens, UniProt P57058); test: KINOMEscan; assay type: binding; conditions: read-out: %Ctrl @ 10000nM
T10 construct: purchased DiscoverX KINOMEscan

KIT(V559D,T670I) = target: T11, KIT(V559D,T670I) (Homo sapiens, UniProt P10721, T670I/V559D); test: KINOMEscan; assay type: binding; conditions: read-out: %Ctrl @ 10000nM
T11 construct: purchased DiscoverX KINOMEscan

MAP4K5 = target: T12, MAP4K5 (Homo sapiens, UniProt Q9Y4K4); test: KINOMEscan; assay type: binding; conditions: read-out: %Ctrl @ 10000nM
T12 construct: purchased DiscoverX KINOMEscan

MEK1 = target: T13, MEK1 (Homo sapiens, UniProt Q02750); test: KINOMEscan; assay type: binding; conditions: read-out: %Ctrl @ 10000nM
T13 construct: purchased DiscoverX KINOMEscan

MEK4 = target: T14, MEK4 (Homo sapiens, UniProt P45985); test: KINOMEscan; assay type: binding; conditions: read-out: %Ctrl @ 10000nM
T14 construct: purchased DiscoverX KINOMEscan

NEK10 = target: T15, NEK10 (Homo sapiens, UniProt Q6ZWH5); test: KINOMEscan; assay type: binding; conditions: read-out: %Ctrl @ 10000nM
T15 construct: purchased DiscoverX KINOMEscan

NEK11 = target: T16, NEK11 (Homo sapiens, UniProt Q8NG66); test: KINOMEscan; assay type: binding; conditions: read-out: %Ctrl @ 10000nM
T16 construct: purchased DiscoverX KINOMEscan

ROCK1 = target: T17, ROCK1 (Homo sapiens, UniProt Q13464); test: KINOMEscan; assay type: binding; conditions: read-out: %Ctrl @ 10000nM
T17 construct: purchased DiscoverX KINOMEscan

[1] = target: T18, RPS6KA5(Kin.Dom.2-C-terminal) (Homo sapiens, UniProt O75582); test: KINOMEscan; assay type: binding; conditions: read-out: %Ctrl @ 10000nM
T18 construct: RPS6KA5(Kin.Dom.2-C-terminal); purchased DiscoverX KINOMEscan

TNK2 = target: T19, TNK2 (Homo sapiens, UniProt Q07912); test: KINOMEscan; assay type: binding; conditions: read-out: %Ctrl @ 10000nM
T19 construct: purchased DiscoverX KINOMEscan

TTK = target: T20, TTK (Homo sapiens, UniProt P33981); test: KINOMEscan; assay type: binding; conditions: read-out: %Ctrl @ 10000nM
T20 construct: DNA label for qPCR (T7 phage fusion or DNA tag); purchased DiscoverX scanMAX; host or cells: E. coli BL21-derived (T7 phage) or HEK-293

WNK3 = target: T21, WNK3 (Homo sapiens, UniProt Q9BYP7); test: KINOMEscan; assay type: binding; conditions: read-out: %Ctrl @ 10000nM
T21 construct: DNA label for qPCR (T7 phage fusion or DNA tag); purchased DiscoverX scanMAX; host or cells: E. coli BL21-derived (T7 phage) or HEK-293

Plasma stability [2] = assay type: in vitro ADME; conditions: rat, read-out: Plasma Stability T1/2 (converted)
Plasma stability [3] = assay type: in vitro ADME; conditions: human, read-out: Plasma Stability T1/2
HEK293T cells = test: Intracellular CoA levels in transfected HEK293T cells; assay type: cell-based, human; conditions: 10 μM, 24 h
Method: Chloroform 1.5 ml, 1.2 ml water and 30 pmol of [^13C2]acetyl-CoA (Sigma) was added, and centrifuged at 2000×g for 10 min. The top layer was loaded on a 2-(2-pyridyl) ethyl solid phase extraction column which was equilibrated with 1 ml 50% methanol/2% acetic acid. The column was washed twice with 1 ml 50% methanol/2% acetic acid and 1 ml water. […] Samples were resuspended in 90% methanol containing 15 mM ammonium hydroxide.

T11 sequence (P10721 26-976 V559D/T670I): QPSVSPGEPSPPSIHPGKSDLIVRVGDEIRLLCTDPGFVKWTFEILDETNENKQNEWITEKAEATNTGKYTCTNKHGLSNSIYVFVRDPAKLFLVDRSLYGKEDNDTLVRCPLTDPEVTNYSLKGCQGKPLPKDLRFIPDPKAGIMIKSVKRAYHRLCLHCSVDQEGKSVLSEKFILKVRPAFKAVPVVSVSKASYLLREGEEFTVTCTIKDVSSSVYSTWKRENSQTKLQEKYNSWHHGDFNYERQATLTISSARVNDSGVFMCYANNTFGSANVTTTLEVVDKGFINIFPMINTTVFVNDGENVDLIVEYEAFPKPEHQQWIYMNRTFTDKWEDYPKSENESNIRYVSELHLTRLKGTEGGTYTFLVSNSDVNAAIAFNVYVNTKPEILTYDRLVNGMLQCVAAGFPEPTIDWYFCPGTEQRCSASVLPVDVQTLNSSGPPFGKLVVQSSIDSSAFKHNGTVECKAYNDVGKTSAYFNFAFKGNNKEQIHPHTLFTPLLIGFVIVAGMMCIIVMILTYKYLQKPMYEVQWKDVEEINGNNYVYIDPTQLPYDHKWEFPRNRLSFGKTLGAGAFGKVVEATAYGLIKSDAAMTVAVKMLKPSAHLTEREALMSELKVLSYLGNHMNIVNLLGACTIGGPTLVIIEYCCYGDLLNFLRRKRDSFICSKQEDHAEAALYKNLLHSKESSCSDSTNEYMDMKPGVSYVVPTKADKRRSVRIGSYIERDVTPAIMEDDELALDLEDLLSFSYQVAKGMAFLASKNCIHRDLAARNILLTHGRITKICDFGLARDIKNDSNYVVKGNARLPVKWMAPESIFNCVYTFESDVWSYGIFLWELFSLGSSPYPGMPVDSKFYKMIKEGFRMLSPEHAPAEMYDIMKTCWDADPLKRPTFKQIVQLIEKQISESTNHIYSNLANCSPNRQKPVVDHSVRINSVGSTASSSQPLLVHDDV
T9 sequence (Q86Z02 whole entry): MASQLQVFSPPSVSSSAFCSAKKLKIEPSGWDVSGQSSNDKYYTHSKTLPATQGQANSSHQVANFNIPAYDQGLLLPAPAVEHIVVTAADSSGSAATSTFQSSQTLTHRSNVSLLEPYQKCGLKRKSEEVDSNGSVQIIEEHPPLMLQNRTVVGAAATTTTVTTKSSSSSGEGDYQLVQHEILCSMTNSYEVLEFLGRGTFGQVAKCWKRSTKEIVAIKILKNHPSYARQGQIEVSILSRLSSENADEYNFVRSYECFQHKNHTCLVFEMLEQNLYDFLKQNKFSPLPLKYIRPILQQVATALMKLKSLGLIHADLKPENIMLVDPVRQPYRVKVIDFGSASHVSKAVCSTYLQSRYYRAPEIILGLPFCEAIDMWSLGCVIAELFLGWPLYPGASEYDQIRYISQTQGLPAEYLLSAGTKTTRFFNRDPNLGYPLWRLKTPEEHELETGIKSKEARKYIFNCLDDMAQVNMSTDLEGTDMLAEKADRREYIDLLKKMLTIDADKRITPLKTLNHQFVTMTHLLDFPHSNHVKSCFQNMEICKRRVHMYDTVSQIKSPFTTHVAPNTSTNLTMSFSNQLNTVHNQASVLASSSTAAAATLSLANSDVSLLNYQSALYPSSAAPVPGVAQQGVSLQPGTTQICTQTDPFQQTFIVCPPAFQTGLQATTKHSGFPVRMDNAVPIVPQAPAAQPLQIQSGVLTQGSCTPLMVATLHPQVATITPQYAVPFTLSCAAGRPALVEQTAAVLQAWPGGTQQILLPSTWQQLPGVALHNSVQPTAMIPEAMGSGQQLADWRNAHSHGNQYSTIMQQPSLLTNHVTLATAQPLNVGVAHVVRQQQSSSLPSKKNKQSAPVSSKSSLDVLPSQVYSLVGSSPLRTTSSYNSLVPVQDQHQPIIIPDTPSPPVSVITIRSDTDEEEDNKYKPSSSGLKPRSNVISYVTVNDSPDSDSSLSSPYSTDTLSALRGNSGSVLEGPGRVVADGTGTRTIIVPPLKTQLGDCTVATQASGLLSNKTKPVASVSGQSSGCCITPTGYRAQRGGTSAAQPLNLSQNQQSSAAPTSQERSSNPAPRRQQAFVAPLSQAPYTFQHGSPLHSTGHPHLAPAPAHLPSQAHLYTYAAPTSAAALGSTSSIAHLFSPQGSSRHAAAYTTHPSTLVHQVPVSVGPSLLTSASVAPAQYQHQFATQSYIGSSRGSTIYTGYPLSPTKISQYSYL
T18 sequence (O75582 388-802 limits assumed): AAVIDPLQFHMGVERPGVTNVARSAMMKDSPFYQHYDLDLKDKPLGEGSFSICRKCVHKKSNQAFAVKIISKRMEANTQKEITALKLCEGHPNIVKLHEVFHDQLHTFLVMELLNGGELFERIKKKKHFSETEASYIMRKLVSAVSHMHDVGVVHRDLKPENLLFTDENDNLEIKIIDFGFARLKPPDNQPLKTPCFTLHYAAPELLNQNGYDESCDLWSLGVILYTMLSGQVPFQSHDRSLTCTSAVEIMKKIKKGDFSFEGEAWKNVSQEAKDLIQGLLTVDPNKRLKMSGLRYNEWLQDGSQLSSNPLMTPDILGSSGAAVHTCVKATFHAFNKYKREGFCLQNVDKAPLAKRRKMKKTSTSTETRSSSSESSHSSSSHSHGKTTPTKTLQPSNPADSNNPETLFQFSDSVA
T13 sequence (Q02750 whole entry): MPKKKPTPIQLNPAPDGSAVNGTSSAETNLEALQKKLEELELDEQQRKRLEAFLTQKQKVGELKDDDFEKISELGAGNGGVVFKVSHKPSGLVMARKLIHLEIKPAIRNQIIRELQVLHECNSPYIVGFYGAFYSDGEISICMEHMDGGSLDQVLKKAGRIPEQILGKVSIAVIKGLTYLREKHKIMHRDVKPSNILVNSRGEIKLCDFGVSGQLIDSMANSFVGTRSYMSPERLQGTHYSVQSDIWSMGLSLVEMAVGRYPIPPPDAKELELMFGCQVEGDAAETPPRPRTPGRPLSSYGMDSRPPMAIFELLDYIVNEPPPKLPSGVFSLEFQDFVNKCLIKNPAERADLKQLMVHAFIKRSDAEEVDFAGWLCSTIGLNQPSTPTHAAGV
T10 sequence (P57058 whole entry): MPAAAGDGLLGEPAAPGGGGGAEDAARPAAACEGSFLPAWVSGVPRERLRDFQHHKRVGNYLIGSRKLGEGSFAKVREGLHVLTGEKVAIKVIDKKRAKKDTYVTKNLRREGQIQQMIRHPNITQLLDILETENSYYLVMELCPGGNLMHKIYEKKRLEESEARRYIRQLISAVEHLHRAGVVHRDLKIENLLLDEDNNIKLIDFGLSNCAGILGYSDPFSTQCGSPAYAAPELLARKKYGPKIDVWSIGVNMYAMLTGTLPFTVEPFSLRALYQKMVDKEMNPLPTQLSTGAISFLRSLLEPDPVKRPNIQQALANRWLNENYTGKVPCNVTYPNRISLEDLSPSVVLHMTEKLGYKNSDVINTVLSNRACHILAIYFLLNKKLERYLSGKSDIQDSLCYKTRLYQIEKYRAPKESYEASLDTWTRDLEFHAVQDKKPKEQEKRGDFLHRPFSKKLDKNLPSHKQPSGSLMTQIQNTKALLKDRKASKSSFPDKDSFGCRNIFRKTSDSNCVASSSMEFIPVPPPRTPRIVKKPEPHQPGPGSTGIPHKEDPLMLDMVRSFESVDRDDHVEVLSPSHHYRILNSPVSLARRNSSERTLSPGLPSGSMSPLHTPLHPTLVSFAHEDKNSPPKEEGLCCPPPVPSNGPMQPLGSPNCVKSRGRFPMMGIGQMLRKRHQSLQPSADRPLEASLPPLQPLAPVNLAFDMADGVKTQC
T6 sequence (P00533 25-1210 G719C): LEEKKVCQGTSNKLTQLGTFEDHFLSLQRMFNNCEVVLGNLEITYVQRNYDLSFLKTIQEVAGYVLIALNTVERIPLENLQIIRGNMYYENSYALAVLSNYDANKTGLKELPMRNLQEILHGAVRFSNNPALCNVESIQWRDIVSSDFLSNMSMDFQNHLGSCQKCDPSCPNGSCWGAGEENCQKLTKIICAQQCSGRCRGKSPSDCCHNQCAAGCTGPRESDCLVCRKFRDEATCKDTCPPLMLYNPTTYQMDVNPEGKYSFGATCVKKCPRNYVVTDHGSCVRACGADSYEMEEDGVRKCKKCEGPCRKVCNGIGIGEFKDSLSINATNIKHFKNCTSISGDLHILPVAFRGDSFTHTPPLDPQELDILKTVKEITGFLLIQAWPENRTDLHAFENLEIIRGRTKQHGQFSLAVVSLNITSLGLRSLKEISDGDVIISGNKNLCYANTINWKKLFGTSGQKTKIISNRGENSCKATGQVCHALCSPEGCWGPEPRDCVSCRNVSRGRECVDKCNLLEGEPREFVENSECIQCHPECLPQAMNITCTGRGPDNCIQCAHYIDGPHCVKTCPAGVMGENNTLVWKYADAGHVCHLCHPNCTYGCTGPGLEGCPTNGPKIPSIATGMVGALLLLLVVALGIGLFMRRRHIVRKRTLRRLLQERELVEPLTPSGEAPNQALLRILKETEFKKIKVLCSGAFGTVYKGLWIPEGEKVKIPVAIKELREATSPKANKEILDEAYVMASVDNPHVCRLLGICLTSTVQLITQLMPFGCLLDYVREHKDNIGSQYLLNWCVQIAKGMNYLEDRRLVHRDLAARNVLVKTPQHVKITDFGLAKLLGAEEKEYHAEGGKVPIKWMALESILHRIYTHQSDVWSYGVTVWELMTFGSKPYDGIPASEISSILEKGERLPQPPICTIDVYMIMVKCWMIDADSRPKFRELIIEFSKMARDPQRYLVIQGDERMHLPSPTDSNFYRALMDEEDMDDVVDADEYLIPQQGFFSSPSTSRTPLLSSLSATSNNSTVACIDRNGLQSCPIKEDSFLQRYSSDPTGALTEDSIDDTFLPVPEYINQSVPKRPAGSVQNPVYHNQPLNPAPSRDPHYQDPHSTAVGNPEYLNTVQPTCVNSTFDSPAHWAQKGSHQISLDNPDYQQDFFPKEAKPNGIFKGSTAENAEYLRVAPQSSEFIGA

CC(C)c1ccc(CC(=O)N2CCN(c3ccc(C#N)nn3)CC2)cc1 [PZ-2891, 6-(4-(2-(4-isopropylphenyl)acetyl)piperazin-1-yl)pyridazine-3-carbonitrile]
remaining binding at 10 µM (AKT1): 98%
remaining binding at 10 µM (ALK(L1196M)): 73%
remaining binding at 10 µM (AMPK-alpha2): 100%
remaining binding at 10 µM (CDK4-cyclinD3): 71%
remaining binding at 10 µM (CDK9): 98%
remaining binding at 10 µM (EGFR(G719C)): 100%
remaining binding at 10 µM (EPHA4): 93%
remaining binding at 10 µM (FGR): 96%
remaining binding at 10 µM (HIPK1): 61%
remaining binding at 10 µM (HUNK): 100%
remaining binding at 10 µM (KIT(V559D,T670I)): 94%
remaining binding at 10 µM (MAP4K5): 100%
remaining binding at 10 µM (MEK1): 76%
remaining binding at 10 µM (MEK4): 100%
remaining binding at 10 µM (NEK10): 89%
remaining binding at 10 µM (NEK11): 99%
remaining binding at 10 µM (ROCK1): 100%
remaining binding at 10 µM [1]: 96%
remaining binding at 10 µM (TNK2): 98%
remaining binding at 10 µM (TTK): 96%
remaining binding at 10 µM (WNK3): 100%
half-life (Plasma stability [2]): > 50 h
half-life (Plasma stability [3]): > 50 h
intracellular CoA, control (empty vector) HEK293T cells (HEK293T cells): significantly increased the levels of intracellular CoA
